We go through 12 compounds from patent US10329278B2, “Pharmaceutical compounds” (Heptares Therapeutics Limited, priority 2017, dated 2019).

Type in all cases: cell-based
For experiment [1], the target named is T1, human muscarinic M4 receptor (Homo sapiens, UniProt P08173).
T1 construct: expressed in transfected cells
T1 sequence (P08173 1-479): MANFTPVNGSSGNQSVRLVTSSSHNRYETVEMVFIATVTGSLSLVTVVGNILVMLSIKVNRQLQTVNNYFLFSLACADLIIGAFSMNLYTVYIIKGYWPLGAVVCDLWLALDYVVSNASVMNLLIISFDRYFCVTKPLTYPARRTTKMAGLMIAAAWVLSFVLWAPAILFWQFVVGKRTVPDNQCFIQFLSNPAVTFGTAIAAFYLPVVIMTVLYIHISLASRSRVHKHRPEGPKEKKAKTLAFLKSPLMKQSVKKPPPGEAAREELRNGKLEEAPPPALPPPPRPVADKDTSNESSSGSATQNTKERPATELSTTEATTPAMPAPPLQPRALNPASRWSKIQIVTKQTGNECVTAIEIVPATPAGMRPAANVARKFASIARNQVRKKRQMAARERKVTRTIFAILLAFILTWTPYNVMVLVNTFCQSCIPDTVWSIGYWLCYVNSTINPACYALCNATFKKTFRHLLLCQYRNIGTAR
The experiment can be described thus: Alphascreen Surefire phospho-ERK1/2 functional assay, M4. Conditions: for EC50 / % Emax cf. ACh (M4) / pEC50 M4: CHO cells stably expressing human M4; for EC50 / pEC50 M4: agonist 5 min, 37° C.; for EC50: read-out: pEC50 M4 (converted); for Emax: CHO, read-out: % Emax cf. ACh (M4), CHO cells stably expressing human M4; for Emax / % Emax cf. ACh (M4): relative to ACh. The method, then:
(§1) ERK1/2 phosphorylation is a downstream consequence of both Gq/11 and Gi/o protein coupled receptor activation, making it highly suitable for the assessment of M1, M3 (Gq/11 coupled) and M2, M4 receptors (Gi/o coupled), rather than using different assay formats for different receptor subtypes. CHO cells stably expressing the human muscarinic M1, M2, M3 or M4 receptor were plated (25K/well) onto 96-well tissue culture plates in MEM-alpha+10% dialysed FBS. Once adhered, cells were serum-starved overnight. Agonist stimulation was performed by the addition of 5 μL agonist to the cells for 5 min (37° C.). Media was removed and 50 μL of lysis buffer added. After 15 min, a 4 μL sample was transferred to 384-well plate and 7 μL of detection mixture added.

Experiment [2] deals with T2, human muscarinic M1 receptor (Homo sapiens, UniProt P11229).
T2 sequence (P11229 1-460): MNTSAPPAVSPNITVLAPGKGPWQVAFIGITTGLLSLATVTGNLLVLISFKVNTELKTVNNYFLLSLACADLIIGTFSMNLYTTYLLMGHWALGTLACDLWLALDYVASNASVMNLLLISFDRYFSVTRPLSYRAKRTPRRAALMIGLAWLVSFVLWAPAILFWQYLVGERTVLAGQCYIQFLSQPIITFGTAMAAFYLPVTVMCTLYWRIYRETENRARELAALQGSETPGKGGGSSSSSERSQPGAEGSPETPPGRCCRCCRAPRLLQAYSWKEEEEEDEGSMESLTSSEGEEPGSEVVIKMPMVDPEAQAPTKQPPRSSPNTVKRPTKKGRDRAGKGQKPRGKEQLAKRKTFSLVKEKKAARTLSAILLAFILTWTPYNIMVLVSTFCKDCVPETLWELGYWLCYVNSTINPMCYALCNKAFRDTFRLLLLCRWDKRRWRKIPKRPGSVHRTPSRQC
The experiment can be described thus: Alphascreen Surefire phospho-ERK1/2 functional assay, M1. Conditions: for EC50 / % Emax cf. ACh (M1) / pEC50 M1: CHO cells stably expressing human M1; for EC50 / pEC50 M1: agonist 5 min, 37° C.; for EC50: read-out: pEC50 M1 (converted); for Emax: CHO, read-out: % Emax cf. ACh (M1), CHO cells stably expressing human M1; for Emax / % Emax cf. ACh (M1): relative to ACh. As to the method:
as §1

Experiment [3] concerns the target T3, human muscarinic M2 receptor (Homo sapiens, UniProt P08172).
T3 sequence (P08172 1-466): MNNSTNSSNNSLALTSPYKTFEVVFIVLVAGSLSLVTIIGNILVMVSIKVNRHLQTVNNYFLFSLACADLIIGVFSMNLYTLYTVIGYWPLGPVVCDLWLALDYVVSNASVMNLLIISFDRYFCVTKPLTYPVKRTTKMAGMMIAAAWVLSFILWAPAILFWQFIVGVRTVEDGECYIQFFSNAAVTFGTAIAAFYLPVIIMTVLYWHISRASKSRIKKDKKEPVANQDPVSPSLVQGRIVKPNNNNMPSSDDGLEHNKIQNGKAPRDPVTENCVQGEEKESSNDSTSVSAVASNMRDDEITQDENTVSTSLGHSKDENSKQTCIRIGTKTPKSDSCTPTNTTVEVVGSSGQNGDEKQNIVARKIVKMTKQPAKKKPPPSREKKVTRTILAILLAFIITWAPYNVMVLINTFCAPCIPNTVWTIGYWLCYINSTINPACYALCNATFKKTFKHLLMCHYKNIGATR
The experiment can be described thus: Alphascreen Surefire phospho-ERK1/2 functional assay, M2. To be noted: for EC50 / pEC50 M2 / % Emax cf. ACh (M2): CHO cells stably expressing human M2; for EC50 / pEC50 M2: agonist 5 min, 37° C.; for EC50: read-out: pEC50 M2 (converted); for Emax: CHO, read-out: % Emax cf. ACh (M2); for % Emax cf. ACh (M2): relative to ACh. The method, then:
as §1
For orientation: Alpha assays give light when donor and acceptor beads are brought close together.

The target of experiment [4] is T4, human muscarinic M3 receptor (Homo sapiens, UniProt P20309).
T4 construct: expressed in transfected cells
Put plainly: Alphascreen Surefire phospho-ERK1/2 functional assay, M3. To be noted: for EC50 / pEC50 M3 / % Emax cf. ACh (M3): CHO cells stably expressing human M3; for EC50 / pEC50 M3: agonist 5 min, 37° C.; for EC50: read-out: pEC50 M3 (converted); for Emax: CHO, read-out: % Emax cf. ACh (M3); for % Emax cf. ACh (M3): relative to ACh. As to the method:
as §1

Where only a bound is given, the exact number is not on record here.

T4 sequence (P20309 whole entry): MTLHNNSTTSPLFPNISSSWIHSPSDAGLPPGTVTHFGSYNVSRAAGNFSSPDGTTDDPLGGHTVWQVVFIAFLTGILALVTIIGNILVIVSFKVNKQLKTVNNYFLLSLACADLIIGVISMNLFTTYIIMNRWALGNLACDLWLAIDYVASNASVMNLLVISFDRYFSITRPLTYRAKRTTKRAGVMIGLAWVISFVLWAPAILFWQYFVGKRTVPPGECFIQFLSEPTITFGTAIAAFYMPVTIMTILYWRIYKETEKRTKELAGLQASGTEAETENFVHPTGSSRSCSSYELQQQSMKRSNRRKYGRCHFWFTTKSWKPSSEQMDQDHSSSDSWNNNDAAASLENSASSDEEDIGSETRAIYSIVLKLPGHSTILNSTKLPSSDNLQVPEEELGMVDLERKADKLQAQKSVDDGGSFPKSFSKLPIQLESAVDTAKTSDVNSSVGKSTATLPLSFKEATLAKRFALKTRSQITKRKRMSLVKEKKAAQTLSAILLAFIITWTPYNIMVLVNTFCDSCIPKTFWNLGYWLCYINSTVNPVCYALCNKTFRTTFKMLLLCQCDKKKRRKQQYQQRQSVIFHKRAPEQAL

Consider `CCOC(=O)C1C2CN(C3CC4(CCN(C(=O)OCC)C4)C3)CC21` (mixture of isomers) [2-1 Mixture of isomers], for which the EC50 in experiment [1] is 77.6 nM; in experiment [2], more than 20000 nM; in experiment [3] it was more than 20000 nM; in experiment [4], more than 20000 nM. Also, the Emax worked out at 86% in experiment [1], 22% in experiment [2], 7% in experiment [3] and 0% in experiment [4].
Regarding `CCOC(=O)N1CCC2(CC(N3CC4C(C3)C4C(=O)N3CCC34CC4)C2)C1` (single isomer, unassigned) [2-19 Isomer 2], the EC50 was 37.2 nM in experiment [1], 13.2 nM in experiment [2], more than 20000 nM in experiment [3] and more than 20000 nM in experiment [4]. The Emax in experiment [1] came to 95%; in experiment [2] it was 93%; in experiment [3], 16%; in experiment [4], 35%.
`CCOC(=O)N1CCC2(CC(N3CC4C(C3)C4C(CC)=NOC)C2)C1` (single isomer, unassigned) [2-25 Isomer 4]: in experiment [1], the EC50 is 151 nM and the “% Emax cf. ACh (M4)” value was found to be 48%. For the same compound, in experiment [2], the EC50 was 324 nM and the “% Emax cf. ACh (M1)” value is 65%. In addition, in experiment [3], the EC50 is more than 20000 nM and the Emax came out at 24%. Also, in experiment [4], the EC50 was more than 20000 nM and the maximal effect (Emax) was determined as 4%.
For `CCOC(=O)N1CCC2(CC(N3CC4C(C3)C4OC(C)c3ccccc3)C2)C1` (single isomer, unassigned) [2-28 Isomer 2], the EC50 in experiment [1] is 53.7 nM; in experiment [2], 64.6 nM; in experiment [3] it was more than 20000 nM; in experiment [4], more than 20000 nM. Besides, in experiment [1], the “% Emax cf. ACh (M4)” value was determined as 51%. In addition, the “% Emax cf. ACh (M1)” value in experiment [2] stood at 104%. Besides, the Emax in experiment [3] was 7%; in experiment [4], 5%.
Regarding `CCOC(=O)N1CCC2(CC(N3C[C@@H]4[C@H](C3)[C@H]4c3ccnn3C)C2)C1` (single isomer, unassigned) [2-29 Isomer 2], the EC50 in experiment [1] was 87.1 nM; in experiment [2] it was 646 nM; in experiment [3], more than 20000 nM; in experiment [4], more than 20000 nM. Further, the Emax in experiment [1] came to 83%; in experiment [2], 43%; in experiment [3], 36%; in experiment [4], 2%.
As to `CCOC(=O)N1C2CCCC1CC(N1CC3C(C1)C3C(=O)N(C)CC)C2` (single isomer, unassigned; isomer 1) [9-1 Isomer 1], in experiment [1], the “pEC50 M4” value is 6.06 and the “% Emax cf. ACh (M4)” value stood at 57%. In experiment [2], the “pEC50 M1” value was 7.04 and the “% Emax cf. ACh (M1)” value is recorded as 93%. Moreover, in experiment [3], the “pEC50 M2” value is given as less than 4.70 and the “% Emax cf. ACh (M2)” value is 19%. For the same compound, in experiment [4], the “pEC50 M3” value is less than 4.70 and the “% Emax cf. ACh (M3)” value is 21%.
As to `CCOC(=O)N1C2COCC1CC(N1CC3C(C1)C3C(=O)N1CCOCC1)C2` (single isomer, unassigned; isomer 1) [10-13 Isomer 1], in experiment [1], the “pEC50 M4” value is given as 5.95 and the “% Emax cf. ACh (M4)” value turned out to be 64%. In experiment [2], the “pEC50 M1” value is 6.51 and the “% Emax cf. ACh (M1)” value is on record as 104%. For the same compound, in experiment [3], the “pEC50 M2” value is recorded as less than 4.70 and the “% Emax cf. ACh (M2)” value is 24%. Besides, in experiment [4], the “pEC50 M3” value is on record as less than 4.70 and the “% Emax cf. ACh (M3)” value stood at 68%.
Regarding `CCOC(=O)N1C2COCC1CC(N1CC3C(C1)C3C(=O)N(CC)CC)C2` (single isomer, unassigned; isomer 2) [10-2 Isomer 2], in experiment [1], the “pEC50 M4” value is recorded as 6.04 and the “% Emax cf. ACh (M4)” value is listed as 62%. Further, in experiment [2], the “pEC50 M1” value was found to be 7.15 and the “% Emax cf. ACh (M1)” value was 113%. In experiment [3], the “pEC50 M2” value is less than 4.70 and the “% Emax cf. ACh (M2)” value is reported as 25%. For the same compound, in experiment [4], the “pEC50 M3” value is less than 4.70 and the “% Emax cf. ACh (M3)” value came to 10%.
For `CCOC(=O)N1C2COCC1CC(N1CC3C(C1)C3C(=O)N1CCOCC1)C2` (single isomer, unassigned; isomer 2) [10-13 Isomer 2], in experiment [1], the “pEC50 M4” value amounted to 4.99 and the “% Emax cf. ACh (M4)” value worked out at 59%. In addition, in experiment [2], the “pEC50 M1” value amounted to 6.43 and the “% Emax cf. ACh (M1)” value was found to be 101%. Besides, in experiment [3], the “pEC50 M2” value is listed as less than 4.70 and the “% Emax cf. ACh (M2)” value worked out at 24%. Besides, in experiment [4], the “pEC50 M3” value is recorded as less than 4.70 and the “% Emax cf. ACh (M3)” value was 22%.
In the case of `CCOC(=O)[C@H]1[C@@H]2CN(C3CC4(C3)CN(C(=O)OCC)C4)C[C@@H]21` [Example 1-1, ethyl 6-[(1R,5S,6r)-6-(ethoxycarbonyl)-3-azabicyclo[3.1.0]hex-3-yl]-2-azaspiro[3.3]heptane-2-carboxylate], the EC50 in experiment [1] was 316 nM; in experiment [2], 9330 nM; in experiment [3] it was more than 20000 nM; in experiment [4] it was more than 20000 nM. Besides, the maximum response (Emax) in experiment [1] amounted to 73%; in experiment [2], 115%; in experiment [3], 12%; in experiment [4] it was 6%.
With `CCOC(=O)N1CC2(CC(N3C[C@@H]4[C@H](C3)[C@H]4c3csc(C)n3)C2)C1` [Example 1-4, ethyl 6-[(1R,5S,6r)-6-(2-methyl-1,3-thiazol-4-yl)-3-azabicyclo[3.1.0]hex-3-yl]-2-azaspiro[3.3]heptane-2-carboxylate], in experiment [1], the EC50 was 617 nM and the maximal response (Emax) was found to be 47%. In addition, in experiment [2], the EC50 was 4570 nM and the Emax worked out at 55%.
For `CCOC(=O)N1CCC(N2C[C@@H]3[C@H](C2)[C@H]3C(=O)N(CC)CC)CC1` [Example 4-1], in that order: 708 nM, 35%, 234 nM and 84%.

As a reminder, the Emax is the size of the effect at its maximum, as opposed to the concentration needed.
